# Experimental data published in patent US10519119B2, “Nicotinic acid derivatives, their preparation and the use thereof” (XIAMEN INSTITUTE OF RARE EARTH MATERIALS, priority 2017, dated 2019).
# Key:
# [1] = test system: human lung cancer cell line A549; experiment: MTT test of activity in inhibiting human lung cancer cell A549; assay type: cell-based; settings: for IC50: Homo sapiens, A549 cells, MTT method, cultivation 24 h with drug, OD at 595 nm; for inhibitory activity on lung cancer cell line A549: statement in words
# Method: (§1) The specific test process was as follows:
# (§2) (1) The lung cancer cell line A549 was plated in a 96-well plate and cultured in 100 μL medium. Until the cells were grown to 90%, 1 μL of the drug (i.e., the above example compounds) was added to the wells, each drug was tested for 8 different concentrations (the initial concentration of the drug, 50 μM, 5 μM, 500 nM, 50 nM, 5 nM, […], respectively), and each concentration of drug was experimented in 3 wells. After cultivation for 24 h, 20 μL of the already formulated 5 mg/mL MTT solution was added to each well, and the medium was aspirated after 4 hours, 150 μL DMSO was added to each well and its optical density (OD) value was measured at a wavelength of 595 nm. The negative control was DMSO.
# (§3) The IC50 value was calculated by GraphPad Prism5 software.
# [2] = test system: colorectal cancer cell line HCT-116; experiment: MTT test of activity in inhibiting colorectal cancer cell line HCT-116; assay type: cell-based, human; settings: for inhibitory activity on colorectal cancer cell line HCT116: statement in words; for IC50: Homo sapiens, HCT-116 cells, MTT method, same procedure as A549
# Method: [The procedure below names another cell line; the source lists this cell line under the same test.] as §1, §2, §3
# [3] = test system: breast cancer cell line MCF-7; experiment: MTT test of activity in inhibiting breast cancer cell line MCF-7; assay type: cell-based, human; settings: for inhibitory activity on breast cancer cell line MCF-7: statement in words; for IC50: Homo sapiens, MCF7, MCF-7 cells, MTT method, same procedure as A549
# Method: [The procedure below names another cell line; the source lists this cell line under the same test.] as §1, §2, §3
Structure (SMILES),IC50 [1],IC50 [3],IC50 [2],inhibitory activity on lung cancer cell line A549 [1],inhibitory activity on colorectal cancer cell line HCT116 [2],inhibitory activity on breast cancer cell line MCF-7 [3]
O=C(OCc1cc(-c2ccc(Br)cc2)no1)c1ccc(C(F)(F)F)nc1 [YP-73],207 µM,43 µM,–,strong inhibitory activity,strong inhibitory activity,strong inhibitory activity
O=C(OCc1cc(-c2ccc(Cl)cc2)no1)c1ccc(Oc2ccccc2)nc1 [YP-108],241 µM,112 µM,–,strong inhibitory activity,strong inhibitory activity,strong inhibitory activity
Cc1ccc(-c2cc(COC(=O)c3ccc(C(F)(F)F)nc3C)on2)cc1 [YP-78],198 µM,160 µM,72.5 µM,strong inhibitory activity,strong inhibitory activity,strong inhibitory activity

# Continued, in another order:
IC50 [1],IC50 [3],IC50 [2],Structure (SMILES),inhibitory activity on lung cancer cell line A549 [1],inhibitory activity on colorectal cancer cell line HCT116 [2],inhibitory activity on breast cancer cell line MCF-7 [3]
187 µM,–,–,O=C(OCc1cc(-c2ccc(Cl)cc2)no1)c1cc(Cl)cnc1Cl [YP-51],strong inhibitory activity,strong inhibitory activity,strong inhibitory activity
172 µM,149 µM,1640 µM,COc1ccc(-c2cc(COC(=O)c3cc(Cl)cnc3Cl)on2)cc1 [YP-44],strong inhibitory activity,strong inhibitory activity,strong inhibitory activity
896 µM,124 µM,279 µM,Cc1nc(C(F)(F)F)ccc1C(=O)OCc1cc(-c2ccc(Cl)cc2)no1 [YP-89],strong inhibitory activity,strong inhibitory activity,strong inhibitory activity
154 µM,132 µM,287 µM,COc1ccc(-c2cc(COC(=O)c3ccc(C(F)(F)F)nc3)on2)cc1 [YP-63],strong inhibitory activity,strong inhibitory activity,strong inhibitory activity
